The source of these data is patent US20140023611A1 (priority 2010, published 2014).

A short description of data set [1]: Stability of compounds in simulated gastric fluid (SGF). Format: in vitro ADME. The note with it: simulated gastric fluid (3 mg/mL pepsin), incubation time 6 hr, relative to t=0. An outline of the steps:
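Compounds at […] were incubated 3 or 6 hr in USP simulated gastric fluid with 3 mg/mL pepsin or simulated intestinal fluid with 3 mg/mL pancreatin. Remaining compound was quantified by HPLC-UV or HPLC-MS peak area % and reported as percent of the t=0 level in the same medium.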

For data set [2], the system named is Uptake of Phosphorus from the Intestine. The data set is described as follows: In vivo co-dosing in chow (urine P out / P consumed). The note with it: Rattus norvegicus, feed or water, rats, compound in chow, read-out: Mean % inhibition Urine Pout/P consumed; for inhibition in vivo at 100 mg/kg/day: mean drug dose 100 mg/kg/day. An outline of the steps: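 Male 7-week-old rats were fed a synthetic diet (0.6% P, 0.6% Ca) for 4 days, then housed in metabolic cages with compound in chow at 1.3 mg/g (nominal 100 mg/kg/day). Urinary P was measured by ion chromatography over 24–96 h and related to dietary P consumed. Percentage inhibition was calculated against no-drug controls.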

Molecules are shown by their SMILES. Counter-ions that a name gives are not always drawn.

On to `O=C(O)CCOCCOCCOCCOCCCc1cccc(C(=O)Nc2ccc(N3CCCCC3)cc2-c2cc(C(=O)N[C@H]3CCCc4ccccc43)ccn2)c1` [Example 252, 3-(2-(2-(2-(3-(3-((2-(4-(((S)-1,2,3,4-tetrahydronaphthalen-1-yl)carbamoyl)pyridin-2-yl)-4-(piperidin-1-yl)phenyl)carbamoyl)phenyl)propoxy)ethoxy)ethoxy)ethoxy)propanoic acid], for which, in data set [1], the “% remaining, SGF” value was over 80%. Also, in data set [2] (mean drug dose 90 mg/kg/day), the inhibition in vivo at 90 mg/kg/day lay within 10 to 30%.

`CCN(CC)c1ccc(NC(=O)c2cccc(CCCOCCOCCOCCOCCOCCOCCOCCOCCOC)c2)c(-c2cc(C(=O)N[C@H]3CCCc4ccccc43)ccn2)c1` [Example 261, (S)-2-(2-(3-(2,5,8,11,14,17,20,23,26-nonaoxanonacosan-29-yl)benzamido)-5-(diethylamino)phenyl)-N-(1,2,3,4-tetrahydronaphthalen-1-yl)isonicotinamide]: the “% remaining, SGF” value in data set [1] is over 80%. In addition, the inhibition in vivo at 100 mg/kg/day in data set [2] is 10 to 30%.

On to `CCN(CC)c1ccc(NC(=O)c2cccc(CSCCOCCOCCOCCOCCOCCOCCOCCOC)c2)c(-c2cc(C(=O)NCc3cccc(C(F)(F)F)c3)ccn2)c1` [Example 265, 2-(2-(3-(2,5,8,11,14,17,20,23-octaoxa-26-thiaheptacosan-27-yl)benzamido)-5-(diethylamino)phenyl)-N-(3-(trifluoromethyl)benzyl)isonicotinamide], for which the “% remaining, SGF” value in data set [1] is reported as over 80%. For the same molecule, in data set [2] (mean drug dose 120 mg/kg/day), the inhibition in vivo at 120 mg/kg/day was at most 10%.

As to `CCN(CC)c1ccc(NC(=O)c2cccc(CCCOCCOCCOCCOCCOCCOCCOCCOCCOC)c2)c(-c2cc(C(=O)NCc3cccc(C(F)(F)F)c3)ccn2)c1` [Example 269, 2-(2-(3-(2,5,8,11,14,17,20,23,26-nonaoxanonacosan-29-yl)benzamido)-5-(diethylamino)phenyl)-N-(3-(trifluoromethyl)benzyl)isonicotinamide], the “% remaining, SGF” value in data set [1] is over 80%. Moreover, the inhibition in vivo at 100 mg/kg/day in data set [2] is at most 10%.

As to `CCN(CC)c1ccc(NC(=O)c2cccc(CSCCOCCOCCOCCOCCOCCOCCOCCOC)c2)c(-c2cc(C(=O)N[C@H]3CCCc4ccccc43)ccn2)c1` [Example 286, (S)-2-(2-(3-(2,5,8,11,14,17,20,23-octaoxa-26-thiaheptacosan-27-yl)benzamido)-5-(diethylamino)phenyl)-N-(1,2,3,4-tetrahydronaphthalen-1-yl)isonicotinamide], the “% remaining, SGF” value in data set [1] is over 80%. Further, the inhibition in vivo at 130 mg/kg/day in data set [2] (mean drug dose 130 mg/kg/day) was 10 to 30%.

In the case of `CCN(CC)c1ccc(NC(=O)c2cccc(C(=O)N(C)CCN(CCOC)CCOCCOCCOCCOCCOCCOCCOC)c2)c(-c2cc(C(=O)NCc3cccc(C(F)(F)F)c3)ccn2)c1` [Example 335, N^1-(4-(Diethylamino)-2-(4-(3-(trifluoromethyl)benzylcarbamoyl)pyridin-2-yl)phenyl)-N^3-(23-(2-methoxyethyl)-2,5,8,11,14,17,20-heptaoxa-23-azapentacosan-25-yl)-N^3-methylisophthalamide, trifluoroacetate], in data set [1], the “% remaining, SGF” value was over 80%. The inhibition in vivo at 100 mg/kg/day in data set [2] was at most 10%.
